Measured values: US20250017949A1, “METHODS AND COMPOSITIONS FOR SUPPRESSING AGING-ASSOCIATED CLONAL HEMATOPOIESIS” (The Jackson Laboratory, priority 2021, published 2025)

Assays:
control HSCs [1] = assay: Transplant of TNFα-treated cultured HSCs into recipient mice; type: in vivo, mouse
Source text: (§1) FIGS. 6A-6I: Dnmt3a-mutant HSCs maintain self-renewal and generate B lymphoid cells following TNF stimulation. (FIG. 6A) Schematic of experimental design to test response of Mx-Cre control and Dnmt3a^R878H/+ HSCs to recombinant TNFα ex vivo under growth conditions that favor HSC expansion. (FIG. 6B) Normalized frequency of donor-derived cells in PB of recipient mice post-transplant. Significance calculated using mixed-effects model with Fisher's LSD. (FIG. 6C) Representative flow cytometry plots showing B cell and myeloid cell frequencies in donor derived PB at 4 weeks post-transplant. (FIG. 6D) Frequency of myeloid (left) and B cells (right) in donor derived PB at 4 weeks post-transplant. Significance calculated using two-way ANOVA with Sidak's multiple comparison's test. (FIG. 6E) Schematic of experimental design to test TNFα response of Fgd5-Cre^ERT control vs. Fgd5-Cre^ERT Dnmt3a^R878H/+ HSCs, and germline Dnmt3a^+/+ vs. Dnmt3a^+/− HSCs. (FIGS. 6F-6G) Viable cell counts after 7 days of culture. Significance calculated using Brown-Forsythe and Welch ANOVA with Welch's correction. (FIG. 6H) Frequency of donor-derived cells in PB of recipient mice post-transplant. Significance calculated using mixed-effects model with Fisher's LSD. (FIG. 6I) Frequency of myeloid (left) and B cells (right) in donor derived PB at 4 weeks post-transplant. Significance calculated using one-way ANOVA with Fisher's LSD. (FIGS. 6B, 6D, and 6F-6I) Dots represent individual recipient mice, boxes show 25 to 75th percentile, line is median, whiskers show min to max. *P<0.05, **P<0.01, ***P<0.001.
(§2) To assess the extent to which TNFα directly promotes young Dnmt3a-mutant HSC survival, we added recombinant TNFα to mixed cultures of wild-type and Dnmt3a-mutant HSCs in media that sustains HSC self-renewal (FIG. 6A). […] Post culture, cells were transplanted into recipient mice to assess HSC function. […] Thus, TNFα-driven myeloid regeneration at the expense of HSC self-renewal is disrupted in Dnmt3a^R878H/+ HSCs. Instead, TNFα-treated Dnmt3a^R878H/+ HSCs favor lymphoid regeneration and maintain their self-renewal. To assess this in complementary models, we used tamoxifen-inducible Fgd5-Cre-driven Dnmt3a^R878H/+ mice as well as germline Dnmt3a^+/− mice to isolate HSCs for TNFα stimulation (FIG. 6E). […] Thus, TNFα-induced HSC survival and disrupted myeloid regeneration are broadly relevant to Dnmt3a-mutant clonal hematopoiesis.
(§3) Two months post-poly(I:C), 25 CD45.2^+ from Dnmt3a^+/+ Mx-Cre or Dnmt3a^fl-R878H/+ Mx-Cre donors (CD45.2+) and 25 CD45.1^+/CD45.2^+ HSCs were sorted into a 96-well plate with Ham's F12 media containing final concentrations of 1× Penicillin-streptomycin-glutamine (Gibco cat. #10378-016), 10 mM HEPES (Gibco cat. #15630080), 1× Insulin-transferrin-selenium-ethanolamine (Gibco cat. #51500-056), 100 ng/mL recombinant murine TPO (Biolegend cat. #593302), 10 ng/mL recombinant murine SCF (StemCell Technologies cat. #78064), and 1 mg/mL polyvinyl alcohol (Sigma cat. #P8136)^19+/−10 ng/mL recombinant murine TNF-α (PeproTech cat. #315-01A) and cultured for seven days at 37° C. and 5% CO2. TNF-α was spiked into the cultures on day 4 and 6. On day 7, half of the wells were stained and analyzed by flow cytometry and half of the wells were harvested, mixed with 1×10^6 CD45.1^+ post-ficoll whole BM cells, and transplanted into young, lethally irradiated CD45.1^+ recipients. PB was tracked monthly for six months post-transplant via flow cytometry.

Dnmt3a-mutant HSCs [2] = assay: as above; type: in vivo, mouse
Source text: as §1, §2, §3

control HSCs [3] = assay: PVA HSC culture with recombinant TNFα, cell number; type: cell-based, mouse
Source text: as §1
(§4) To assess the extent to which TNFα directly promotes young Dnmt3a-mutant HSC survival, we added recombinant TNFα to mixed cultures of wild-type and Dnmt3a-mutant HSCs in media that sustains HSC self-renewal (FIG. 6A). […]
as §3, with “TNF-α was spiked into the cultures on day 4 and 6.” left out, “PB was tracked monthly for six months post-transplant via flow cytometry.” left out

Dnmt3a-mutant HSCs [4] = assay: PVA HSC culture with recombinant TNFα, cell number; type: cell-based, mouse; conditions: recombinant TNFα added to mixed cultures of wild-type and Dnmt3a^R878H HSCs
Source text: as §1, §4
as §3, with “TNF-α was spiked into the cultures on day 4 and 6.” left out, “PB was tracked monthly for six months post-transplant via flow cytometry.” left out

[5] = donor-derived cells in PB post-transplant, FIG. 6B
[6] = post-transplant, data not shown

Substance: TNFα
- Long-term multilineage engraftment of TNFα-treated control HSCs (control HSCs [1]; [5]): did not sustain long-term multilineage engraftment
- HSC, MPP^Mk/E and MPP^G/M populations in bone marrow from TNFα-treated control HSCs (control HSCs [1]; [6]): trends toward reduced HSC, MPP^Mk/E, and MPP^G/M populations
- Dnmt3a^+/− B lymphoid relative to myeloid cell production (Dnmt3a-mutant HSCs [2]; donor-derived PB at 4 weeks post-transplant, FIG. 6I): transiently increased Dnmt3a^+/− B lymphoid relative to myeloid cell production
- Dnmt3a^R878H/+ B lymphoid cell production (Dnmt3a-mutant HSCs [2]; donor-derived PB at 4 weeks post-transplant, FIGS. 6C-6D): transiently increased Dnmt3a^R878H/+ B lymphoid cell production
- Mature hematopoietic cell production and engraftment of TNFα-treated Dnmt3a^R878H/+ HSCs (Dnmt3a-mutant HSCs [2]; [5]): increased production of mature hematopoietic cells in the short term (4 weeks post-transplant) followed by sustained multilineage engraftment
- HSC, MPP^Mk/E and MPP^G/M populations in bone marrow from TNFα-treated Dnmt3a^R878H/+ HSCs (Dnmt3a-mutant HSCs [2]; [6]): not observed in TNFα-treated Dnmt3a^R878H/+ HSCs
- Multilineage engraftment of TNFα-treated Dnmt3a^+/− HSCs (Dnmt3a-mutant HSCs [2]; vs TNFα-treated control HSCs, FIG. 6H): sustained multilineage engraftment at a higher frequency than TNFα-treated control HSCs
- Number of control cells produced over the culture period (control HSCs [3]; Mx-Cre control, 10 ng/mL TNF-α, seven days, data not shown): reduced the number of control
- Viable cell counts of control cells after 7 days of culture (control HSCs [3]; controls of the Fgd5-Cre and germline Dnmt3a^+/− models, FIGS. 6F-6G): reduced the number of control
- Wild-type progeny in mixed cultures (control HSCs [3]; recombinant TNFα added to mixed cultures of wild-type and Dnmt3a^R878H HSCs): depletion of wild-type progeny
- Maintenance of Dnmt3a^R878H HSC progeny in mixed cultures (Dnmt3a-mutant HSCs [4]): preferential maintenance of Dnmt3a^R878H HSC progeny
